IC50, Activity and inhibition in vivo data for ten compounds are collected here from ChEMBL document CHEMBL4732145, “Discovery of a PROTAC targeting ALK with in vivo activity” (Eur J Med Chem, 2021).

pIC50: −log10 of the molar value. A value given as a limit tells only on which side of the number the result lay.

For one series, the system named is A549. As to the kind of experiment: Antiproliferative activity against human A549 cells assessed as reduction in cell viability measured after 72 hrs by MTT assay. The note with it: A549, 72 h. A general note: Tetrazolium dyes change colour on reduction, which living cells bring about.
Series [1] has as its system NCI-H3122. As to the kind of experiment: Antiproliferative activity against human NCI-H3122 cells assessed as reduction in cell viability measured after 72 hrs by MTT assay. The conditions noted are these: NCI-H3122, 72 h.
The subject of a further series is NCI-H1299. As to the kind of experiment: Antiproliferative activity against human NCI-H1299 cells assessed as reduction in cell viability measured after 72 hrs by MTT assay. The conditions noted are these: NCI-H1299, 72 h.
Another series relates to NCI-H2228. As to the kind of experiment: Antiproliferative activity against human NCI-H2228 cells assessed as reduction in cell viability measured after 72 hrs by MTT assay. The conditions noted are these: NCI-H2228, 72 h.
The next series relates to LO2 (Homo sapiens). The series is described as follows: Cytotoxicity against human L02 cells assessed as reduction in cell viability measured after 72 hrs by MTT assay. The note with it: l02, 72 h.
Another series concerns HeLa. As to the kind of experiment: Antiproliferative activity against human HeLa cells assessed as reduction in cell viability measured after 72 hrs by MTT assay.
Series [2] addresses von Hippel-Lindau disease tumor suppressor/ALK tyrosine kinase receptor/Nucleophosmin (Homo sapiens) (UniProt Q9UM73+P06748+P40337). As to the kind of experiment: Protac activity at VHL/NPM-ALK fusion protein in human SU-DHL-1 cells assessed as induction of NPM-ALK fusion protein degradation at 1 uM by Western blot analysis relative to control. Type of series: cell-based. A general note: In western blotting, separated proteins are transferred to a membrane and probed.

The subject of series [3] is NCI-H3122. The series is described as follows: Antitumor activity against human NCI-H3122 cells xenografted in BALB/c nude mouse assessed as tumor growth inhibition at 25 mg/kg/day, ig administered for 15 days relative to control. Type of series: functional. The conditions noted are these: NCI-H3122, po, 360 h, time 15 day, read-out: TGI. (In general: Xenograft models place foreign cells or tissue in a host animal.)

Sequence of von Hippel-Lindau disease tumor suppressor/ALK tyrosine kinase receptor/Nucleophosmin (Homo sapiens) (P06748 whole entry partner, the tested form may be a part): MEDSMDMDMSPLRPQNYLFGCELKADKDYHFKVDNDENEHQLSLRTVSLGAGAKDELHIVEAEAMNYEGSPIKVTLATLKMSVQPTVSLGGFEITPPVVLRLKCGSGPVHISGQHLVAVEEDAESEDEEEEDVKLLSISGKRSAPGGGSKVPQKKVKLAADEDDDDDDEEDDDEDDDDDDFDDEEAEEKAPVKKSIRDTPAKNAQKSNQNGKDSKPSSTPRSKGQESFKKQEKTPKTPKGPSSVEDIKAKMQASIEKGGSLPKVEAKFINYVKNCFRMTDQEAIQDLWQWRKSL
Sequence of von Hippel-Lindau disease tumor suppressor/ALK tyrosine kinase receptor/Nucleophosmin (Homo sapiens) (P40337 whole entry partner, the tested form may be a part): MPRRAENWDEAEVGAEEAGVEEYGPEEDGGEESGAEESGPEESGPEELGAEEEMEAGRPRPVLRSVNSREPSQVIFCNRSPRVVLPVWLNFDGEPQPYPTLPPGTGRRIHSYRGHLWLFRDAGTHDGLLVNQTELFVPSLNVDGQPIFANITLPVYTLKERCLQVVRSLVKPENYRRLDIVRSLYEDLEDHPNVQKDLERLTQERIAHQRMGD
Sequence of von Hippel-Lindau disease tumor suppressor/ALK tyrosine kinase receptor/Nucleophosmin (Homo sapiens) (Q9UM73 19-1620 limits assumed): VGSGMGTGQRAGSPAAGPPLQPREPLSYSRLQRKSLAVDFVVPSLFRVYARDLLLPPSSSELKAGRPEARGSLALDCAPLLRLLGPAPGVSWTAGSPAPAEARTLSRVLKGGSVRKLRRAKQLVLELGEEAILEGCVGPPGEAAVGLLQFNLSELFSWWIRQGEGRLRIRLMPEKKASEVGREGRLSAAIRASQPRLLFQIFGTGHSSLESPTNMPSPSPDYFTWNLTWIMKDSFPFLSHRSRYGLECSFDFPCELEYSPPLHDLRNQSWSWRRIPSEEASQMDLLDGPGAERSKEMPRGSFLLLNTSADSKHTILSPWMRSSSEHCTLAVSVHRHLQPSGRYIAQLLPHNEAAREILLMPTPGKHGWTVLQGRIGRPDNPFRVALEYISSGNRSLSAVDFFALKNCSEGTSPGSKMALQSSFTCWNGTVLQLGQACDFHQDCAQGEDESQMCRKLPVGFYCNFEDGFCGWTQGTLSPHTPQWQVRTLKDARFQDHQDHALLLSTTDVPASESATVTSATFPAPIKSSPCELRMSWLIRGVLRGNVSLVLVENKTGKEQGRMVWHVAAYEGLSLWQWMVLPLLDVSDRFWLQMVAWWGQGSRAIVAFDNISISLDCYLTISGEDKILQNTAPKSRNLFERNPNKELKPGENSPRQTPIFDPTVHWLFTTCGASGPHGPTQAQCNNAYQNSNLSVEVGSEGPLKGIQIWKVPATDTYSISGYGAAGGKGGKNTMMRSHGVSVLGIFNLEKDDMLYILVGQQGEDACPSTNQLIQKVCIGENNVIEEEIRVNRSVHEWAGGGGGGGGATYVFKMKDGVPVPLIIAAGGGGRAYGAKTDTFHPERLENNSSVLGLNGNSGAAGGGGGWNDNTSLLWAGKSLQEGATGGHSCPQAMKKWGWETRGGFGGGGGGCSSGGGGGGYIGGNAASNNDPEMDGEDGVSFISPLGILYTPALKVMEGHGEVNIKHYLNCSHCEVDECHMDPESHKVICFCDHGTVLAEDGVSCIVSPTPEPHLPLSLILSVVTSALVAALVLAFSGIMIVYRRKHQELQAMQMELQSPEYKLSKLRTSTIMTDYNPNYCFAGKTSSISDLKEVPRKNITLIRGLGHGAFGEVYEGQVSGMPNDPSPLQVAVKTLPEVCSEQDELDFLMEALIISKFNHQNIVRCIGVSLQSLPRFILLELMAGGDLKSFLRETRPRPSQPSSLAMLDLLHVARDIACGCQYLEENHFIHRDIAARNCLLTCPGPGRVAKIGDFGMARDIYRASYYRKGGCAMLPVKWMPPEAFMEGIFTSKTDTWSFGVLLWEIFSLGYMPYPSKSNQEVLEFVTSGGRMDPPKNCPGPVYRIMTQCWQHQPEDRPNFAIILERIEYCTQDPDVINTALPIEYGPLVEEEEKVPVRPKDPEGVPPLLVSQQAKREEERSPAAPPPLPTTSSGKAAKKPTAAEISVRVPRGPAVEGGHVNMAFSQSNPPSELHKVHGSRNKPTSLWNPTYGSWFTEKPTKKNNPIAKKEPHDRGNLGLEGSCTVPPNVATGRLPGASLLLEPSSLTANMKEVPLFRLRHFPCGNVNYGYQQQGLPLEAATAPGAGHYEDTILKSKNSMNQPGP

One may read the pIC50 as the negative decadic logarithm of the IC50, by convention in mol/L. As to `Cc1cc(Nc2ncc(Cl)c(Nc3ccccc3S(=O)(=O)C(C)C)n2)c(OC(C)C)cc1C1CCN(CCC(=O)NCCOCCNCC(=O)Nc2cccc3c2C(=O)N(C2CCC(=O)NC2=O)C3=O)CC1` (centres undefined), the pIC50 is 5.17 in the series on A549; 5.74 with NCI-H3122 [1]; 5.14 in the series with NCI-H1299; 5.24 with NCI-H2228; 5.24 in the series with HeLa. Besides, the Activity result in the series with LO2 (Homo sapiens) is recorded as “Toxic”.

As to `Cc1cc(Nc2ncc(Cl)c(Nc3ccccc3S(=O)(=O)C(C)C)n2)c(OC(C)C)cc1C1CCN(CCC(=O)NCCOCCOCCNc2cccc3c2C(=O)N(C2CCC(=O)NC2=O)C3=O)CC1` (centres undefined), the pIC50 was 5.59 in the series on A549; 6.15 in the series on NCI-H3122 [1]; 5.12 in the series on NCI-H1299; 5.46 in the series on NCI-H2228; 5.65 in the series with HeLa. Also, in the series on LO2 (Homo sapiens), the Activity entry is listed as “Toxic”.

For `Cc1cc(Nc2ncc(Cl)c(Nc3ccccc3S(=O)(=O)C(C)C)n2)c(OC(C)C)cc1C1CCN(CCC(=O)NCCCCNC(=O)COc2cccc3c2C(=O)N(C2CCC(=O)NC2=O)C3=O)CC1` (centres undefined), the pIC50 in the series with A549 is less than 4.70; with NCI-H3122 [1] it was 5.89; in the series on NCI-H1299, 5.03; with NCI-H2228, less than 4.70; in the series on HeLa it was 5.16. In the series on LO2 (Homo sapiens), the Activity result is reported as “Toxic”.

Turning to `Cc1cc(Nc2ncc(Cl)c(Nc3ccccc3S(=O)(=O)C(C)C)n2)c(OC(C)C)cc1C1CCN(CCC(=O)NCCCCNCC(=O)Nc2cccc3c2C(=O)N(C2CCC(=O)NC2=O)C3=O)CC1` (centres undefined), the pIC50 in the series with A549 was 4.87; in the series with NCI-H3122 [1], 5.45; in the series on NCI-H1299, less than 4.70; in the series on NCI-H2228, 5.06; with HeLa it was 5.09. Moreover, the Activity result in the series with LO2 (Homo sapiens) was “Toxic”.

On to `Cc1cc(Nc2ncc(Cl)c(Nc3ccccc3S(=O)(=O)C(C)C)n2)c(OC(C)C)cc1C1CCN(CCC(=O)NCCCCCCNCC(=O)Nc2cccc3c2C(=O)N(C2CCC(=O)NC2=O)C3=O)CC1` (centres undefined), for which the pIC50 with A549 is 5.29; with NCI-H3122 [1], 5.96; in the series on NCI-H1299, less than 4.70; with NCI-H2228 it was 5.51; in the series on HeLa, 5.36. Besides, the Activity entry in the series with LO2 (Homo sapiens) was “Toxic”.

`Cc1cc(Nc2ncc(Cl)c(Nc3ccccc3S(=O)(=O)C(C)C)n2)c(OC(C)C)cc1C1CCN(CCC(=O)NCCOCCOCCNCC(=O)Nc2cccc3c2C(=O)N(C2CCC(=O)NC2=O)C3=O)CC1` (centres undefined): the negative-log IC50 (pIC50) in the series on A549 was 5.24; with NCI-H3122 [1], 5.63; in the series on NCI-H1299, 4.96; in the series with NCI-H2228, 5.35; in the series with HeLa, 5.23. Further, the Activity result in the series with LO2 (Homo sapiens) was “Toxic”.

Take `Cc1cc(Nc2ncc(Cl)c(Nc3ccccc3S(=O)(=O)C(C)C)n2)c(OC(C)C)cc1C1CCN(C(=O)CCCC(=O)N[C@H](C(=O)N2C[C@H](O)C[C@H]2C(=O)NCc2ccc(-c3scnc3C)cc2)C(C)(C)C)CC1`: the Activity in series [2] is greater than 90%.

For the compound `Cc1cc(Nc2ncc(Cl)c(Nc3ccccc3S(=O)(=O)C(C)C)n2)c(OC(C)C)cc1C1CCN(CCC(=O)NCCOCCNCCC(=O)Nc2cccc3c2C(=O)N(C2CCC(=O)NC2=O)C3=O)CC1` (centres undefined), the pIC50 is 4.96 with A549; 5.31 in the series with NCI-H3122 [1]; 4.91 in the series with NCI-H1299; 5.28 in the series with NCI-H2228; 5.10 in the series on HeLa. In addition, in the series on LO2 (Homo sapiens), the Activity entry is on record as “Toxic”.

For the compound `Cc1cc(Nc2ncc(Cl)c(Nc3ccccc3S(=O)(=O)C(C)C)n2)c(OC(C)C)cc1C1CCNCC1` [CERITINIB], the pIC50 in the series on A549 is 5.88; in the series with NCI-H1299, 5.53; in the series on NCI-H2228, 5.89; in the series on HeLa it was 6.03. Further, in the series on NCI-H3122 [3], the inhibition in vivo at 25 mg/kg/day turned out to be 49%.

As to `Cc1cc(Nc2ncc(Cl)c(Nc3ccccc3S(=O)(=O)C(C)C)n2)c(OC(C)C)cc1C1CCN(CCC(=O)NCCCCCCCCNCC(=O)Nc2cccc3c2C(=O)N(C2CCC(=O)NC2=O)C3=O)CC1` (centres undefined), the pIC50 is less than 4.70 with A549; 5.58 in the series on NCI-H3122 [1]; less than 4.70 in the series with NCI-H1299; 4.82 in the series with NCI-H2228; 5.12 in the series on HeLa. The Activity result in the series on LO2 (Homo sapiens) is given as “Toxic”.
